Reference: article PMC1906830, “In vivo optical imaging of integrin αV-β3 in mice using multivalent or monovalent cRGD targeting vectors” (Molecular Cancer, 2007)

Columns and labels:
[1] = tested on: HEK293(β1) cells (αVβ3-negative); experiment: In vitro binding of Cy5-labeled peptides, confocal laser scanning microscopy; format: cell-based, human; details: 0.1 μM Cy5-labeled peptide, 30 min, 37°C, result in words
Method: (§1) Cells were seeded on sterilized 18-mm-diameter glass coverslips in 12-well plates (3 × 10^5 cells per well), and incubated overnight at 37°C. […] They were then washed with PBS, fixed with 2% paraformaldehyde at room temperature for 10 min. The nuclei were stained with 5 μM Hoechst 33342, and the coverslips were inverted onto glass slides using Mowiol (Calbiochem, San Diego, CA) mounting medium.

[2] = tested on: HEK293(β3) cells (high levels of αVβ3); experiment: as above; format: cell-based, human; details: 0.1 μM Cy5-labeled peptide, 30 min, 37°C, result in words
Method: as §1

[3] = tested on: HEK293(β3) s.c. tumors; experiment: Whole body in vivo optical imaging (fluorescence reflectance) of tumor-bearing mice; parameters: species or system Swiss nude mice
[4] = tested on: HEK293(β3) s.c. tumors; experiment: Histological distribution of RGD-peptides in excised tumors (CLSM); format: in vivo, Swiss nude mice; details: HEK293(β3) s.c. tumor excised 3 hr after 10 nmol i.v., cryosections
Method: Sections of 20–30 μm thickness were fixed with 2% paraformaldehyde at room temperature for 10 min. The nuclei were stained with 5 μM Hoechst 33342, and the coverslips were mounted using Mowiol and kept at 4°C in the dark until observation using CLSM.

Cy5-RAFT-c(-RGDfK-)4 (bicyclic or more) [Cy5-labeled tetramer: four c[-RGDfK-] grafted via oxime bond on RAFT cyclic decapeptide, Cy5 on the opposite side lysine]
binding to HEK293(β1) cells (CLSM) [1]: none of these peptides bound | binding to HEK293(β3) cells (CLSM) [2]: very strongly | tumor contrast (T/S ratio, tumor vs. skin) ([3]; HEK293(β3) s.c. tumor, 10 nmol i.v., 4 hr p.i., mean ± SD, n = 3–4): 15.9 ± 3.6 | renal uptake ([3]; i.v. injection, tumor-bearing or normal mice, not modified by excess of unlabeled tetramer or monomer): higher renal uptake than Cy5-cRGD | tumor/skin ratio ([3]; intravenous injection, HEK293(β3) tumors, time not stated (abstract)): above 15 | distribution / internalization in tumor cells of excised tumors (CLSM, words) [4]: massively internalized by tumor cells
